Each structure is given as a SMILES string.

The results in this text go back to patent publication US4863941A, “Glycerol derivatives” (Hoffmann-La Roche Inc., priority 1985, dated 1989).

This assay deals with aggregation of the blood platelets brought about by PAF. Briefly: inhibition of PAF-triggered platelet aggregation in platelet-rich plasma (PRP), aggregometer. In kind it is cell-based. Conditions: Oryctolagus cuniculus, rabbit PRP, 37° C., sub-maximum dosage of PAF (4 nM), test substance added 2 minutes before PAF. The protocol: Platelet-rich plasma (PRP) is prepared by centrifugation of rabbit blood containing 1/10 volumes of 90 mM trisodium citrate. The aggregation of the blood platelets is measured with the aid of an aggregometer at 37° C. while stirring. 2 minutes after the addition of the test sub- stance to the PRP the platelet aggregation is triggered off by a sub-maximum dosage of PAF (4 nM). The IC50 value (μM) given in the following Table corresponds to that concentration of the test substance which reduces to a half the aggregation of the blood platelets brought about by PAF.
`CCCCCCCCCCCCCCCCCC(=O)OCC(COC(=O)CCC[N+](C)(C)C)NC(C)=O` (racemic) [Example 1, [3-[[(RS)-2-acetamido-3-[octadecanoyloxy]propoxy]carbonyl]propyl]trimethylammonium chloride]: 5500 nM corresponded to half-maximal inhibition (IC50). Then `CCCCCCCCCCCCCCCCCCNC(=O)OCC(COC(=O)CCC[N+](C)(C)C)NC(=O)OC` (racemic) [Example 2, [3-[[(RS)-2-(1-methoxyformamido)-3-(octadecylcarbamoyloxy)propoxy]carbonyl]propyl]trimethylammonium chloride], with 1800 nM; and `CCCCCCCCCCCCCCCCCCOCC(COC(=O)OCC[N+]1(C)CCCCC1)OC` (racemic) [Example 3, 1-[2-[[[(RS)-2-methoxy-3-(octadecyloxy)propoxy]carbonyl]oxy]ethyl]-1-methylpiperidinium chloride], with 4000 nM; and `CCCCCCCCCCCCCCCCCCOC(=O)NCC(COC(=O)CCC[N+](C)(C)C)OC(=O)NC` (racemic) [Example 4, [3-[[(RS)-2-Methylcarbamoyloxy-3-[1-(octadecyloxy)formamido]propoxy]carbonyl]propyl]trimethylammonium chloride], with 1800 nM. Then `CCCCCCCCCCCCCCCCCCOC(=O)N(CC(COCCCC[n+]1ccsc1)OC(=O)NC)C(C)C` (racemic) [Example 5, 3-[4-[(RS)-3-[N-isopropyl-1-(octadecyloxy)formamido]-2-[(methylcarbamoyl)oxy]-propoxy]butyl]thiazolium bromide], with 40 nM; and `CCCCCCCCCCCCCCCCCCOC(=O)N(CC(COCCCC[N+](C)(C)C)OC(=O)NC)C(C)C` (racemic) [Example 6, [4-[(RS)-3-[N-isopropyl(1-octadecyloxy)formamido]-2-[(methylcarbamoyl)oxy]propoxy]butyl]trimethylammonium bromide], with 500 nM.

Consider `CCCCCCCCCCCCCCCCCCNC(=O)N(CC(COCCCC[n+]1ccsc1)OC(=O)NC)C(C)C` (racemic) [Example 7, 3-[4-[(RS)-3-(1-isopropyl-3-octadecylureido)-2-[(methylcarbamoyl)oxy]propoxy]butyl]thiazolium bromide], for which it took 50 nM to reach half-maximal inhibition (IC50). This IC50 lies about 10-fold lower than the previous one. With `CCCCCCCCCCCCCCCCCCNC(=O)N(CC(COCCCCn1cc[n+](C)c1)OC(=O)NC)C(C)C` (racemic) [Example 8, 1-[4-[(RS)-3-(1-isopropyl-3-octadecylureido)-2-[(methylcarbamoyl)oxy]propoxy]butyl]-3-methylimidazolium bromide] the figure was 400 nM; with `CCCCCCCCCCCCCCCCCCOC(=O)N(CC(COCCCC[n+]1ccsc1)OC(=O)OC)C(C)C` (racemic) [Example 9, 3-[4-(RS)-3-(N-isopropyl-1-octadecyloxyformamido)-2-(methoxycarbonyloxy)propoxy]butyl]thiazolium bromide], 60 nM.
